Source: paper PMC11562385 (RSC Chemical Biology, 2024)
Read-outs that look alike come from different tables or passages of the source. Bridge positions count the residues as written; N and C are the ends. Square brackets hold non-standard residues; d marks the D form. Peptide text beside a SMILES is read from it. * marks the point of attachment. Dab = NCC[C@H](N)C(=O)O; X1 = CN(C)C/C=C/C(=O)*

Assays:
PD1:PDL1 interaction = target: T1, PD1:PDL1 interaction (Homo sapiens, UniProt Q15116); experiment: PD1/PDL1 immunoblocking ELISA (BPS Bioscience kit cat # 72005); type: binding; conditions: for LE (ligand efficiency): LE = -RTln(EC50)/HA, HA = non-hydrogen atoms omitting the strap (RWV•••VWE)
T1 construct: purchased BPS Bioscience 72005
T1 sequence (Q15116 25-167 limits assumed): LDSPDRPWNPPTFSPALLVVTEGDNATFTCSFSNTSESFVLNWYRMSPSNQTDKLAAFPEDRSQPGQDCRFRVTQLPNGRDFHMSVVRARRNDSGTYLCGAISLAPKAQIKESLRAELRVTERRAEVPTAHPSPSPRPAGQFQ

[1] = Variable-temperature CD melting curves (CD-melts at 228±2 nm and 202±2 nm), individual and global two-state fits; type: physicochemical; conditions: for ΔGF0: CD-melt at 228±2 nm, individual two-state Gibbs-Helmholtz fit (Origin 9.0), phosphate buffer 15 mM pH 6.5 ± MeOH; for ΔGF0 / DHm (fitted value, results from OriginPro) / Tm (fitted value, results from OriginPro): 0-95 °C; for Tm / Hairpin %-fold 291K / Hairpin %-fold 310K: Table S5, individual fit; for Tm: 228±2 nm; for -TΔSF0 / ΔCpF0 / ΔHF0 / ΔHm: as E16; for VT-CD %-fold: folded fraction (χF) at 25 °C from CD-melts, (R) regular / (B) bulged fold; for VT-CD %-fold / VT-CD Tm (°C): phosphate buffer 15 mM pH 6.5, up to 20% MeOH; for %fold 291K: fraction folded at 291 K from two-state fit of CD-melt; for VT-CD Tm (°C): melting temperature from CD-melts; for DHm (fitted value, OriginPro two-state fit of CD-melt) / Tm (fitted value, OriginPro two-state fit of CD-melt): variable-temperature CD melt 0-95 °C, θ - θcoil(95) vs T, l = 0.1 cm, individual two-state fit; for DHm (fitted value, results from OriginPro) / Tm (fitted value, results from OriginPro): two-state fit of the CD melt θ - θcoil(95) vs T, peptide c 3.2e-5 to 5e-5 M
In short: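 Far-UV CD melts (0 to 95 °C) at 15-120 µM peptide in 15 mM phosphate buffer, concentration set by Trp/Tyr absorbance at 280 nm; CD-exciton intensity taken as %-folding probe. Melting curves fitted individually and globally to a two-state model.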

[2] = ELISA, mean of three independent experiments, read-out: EC50 Value

Row | SMILES | LE (ligand efficiency) (PD1:PDL1 interaction) | ΔGF0 [1] | Tm [1] | Hairpin %-fold 291K ([1]; 291 K) | Hairpin %-fold 310K [1] | -TΔSF0 [1] | ΔCpF0 [1] | ΔHF0 [1] | ΔHm [1] | VT-CD %-fold [1] | %fold 291K [1] | VT-CD Tm (°C) [1] | DHm (fitted value, OriginPro two-state fit of CD-melt) [1] | Tm (fitted value, OriginPro two-state fit of CD-melt) [1] | EC50 (PD1:PDL1 interaction; [2]) | DHm (fitted value, results from OriginPro) ([1]; l 0.1 cm) | Tm (fitted value, results from OriginPro) ([1]; l 0.1 cm) | other results
1 | CC(C)[C@H](NC(=O)[C@H](Cc1c[nH]c2ccccc12)NC(=O)[C@@H](N)CCCNC(=N)N)C(=O)N[C@@H](C)C(=O)N[C@@H](CCCNC(=N)N)C(=O)N[C@@H](CCCNC(=N)N)C(=O)N[C@@H](CC(=O)O)C(=O)N[C@@H](Cc1ccc(O)cc1)C(=O)N[C@@H](CCCNC(=N)N)C(=O)N[C@@H](Cc1ccccc1)C(=O)N[C@@H](CC(=O)O)C(=O)N[C@@H](CCNC(=O)/C=C/CN(C)C)C(=O)NCC(=O)N[C@@H](Cc1ccccc1)C(=O)N[C@@H](CC(=O)O)C(=O)N[C@@H](Cc1ccc(O)cc1)C(=O)N[C@@H](Cc1c[nH]c2ccccc12)C(=O)N[C@H](C(=O)N[C@@H](Cc1c[nH]c2ccccc12)C(=O)N[C@@H](CCC(=O)O)C(=O)O)C(C)C [2cc] (H-RWVARRDYRFD[Dab](X1)GFDYWVWE-OH; N-terminus assumed) | 0.13 | -0.93 ± 0.002 kcal/mol | 48.7 oC | 87 ± 1% | 70 ± 1% | 8.50 ± 0.04 kcal/mol | -268 ± 2 cal.deg-1.mol-1 | -9.43 ± 0.04 kcal/mol | -15.8 ± 0.04 kcal/mol |  |  |  |  |  |  |  |  | Tm 228 nm Glob. ([1]; global fit (shared maximum molar ellipticity), 228 nm): 51.7 oC; Tm 202 nm Glob. ([1]; global fit, 202 nm): 9.7 oC; χF (291 K) 202 nm Glob. ([1]; global fit, 202 nm, 291 K): 47%; χF (291 K) 228 nm Glob. ([1]; global fit, 228 nm, 291 K): 95%; χF (291 K) 202 nm Indiv. ([1]; individual fit, 202 nm, 291 K): 83%; χF (291 K) 228 nm Indiv. ([1]; individual fit, 228 nm, 291 K): 88%; Tm 228 nm Indiv. ([1]; individual fit, exciton band 228 nm): 49.8 oC; Tm 202 nm Indiv. ([1]; individual fit, β-bulge band 202 nm): 44.3 oC; DHm (fitted value, OriginPro) ([1]; two-state fit of the CD melt (θ - θcoil(95) vs T, 0-95 °C), l 0.1 cm, enthalpy of folding at Tm): -15809.6 cal/mol
2 | CSCC[C@H](NC(=O)[C@H](CC(=O)O)NC(=O)CNC(=O)[C@H](CCCNC(=N)N)NC(=O)[C@H](Cc1ccc(O)cc1)NC(=O)[C@H](CC(=O)O)NC(=O)[C@H](CCCNC(=N)N)NC(=O)[C@H](CCCNC(=N)N)NC(=O)[C@H](C)NC(=O)[C@@H](NC(=O)[C@H](Cc1c[nH]c2ccccc12)NC(=O)[C@@H](N)CCCNC(=N)N)C(C)C)C(=O)NCC(=O)N[C@@H](Cc1ccccc1)C(=O)N[C@@H](CC(=O)O)C(=O)N[C@@H](Cc1ccc(O)cc1)C(=O)N[C@@H](Cc1c[nH]c2ccccc12)C(=O)N[C@@H](Cc1c[nH]cn1)C(=O)N[C@@H](Cc1c[nH]c2ccccc12)C(=O)N[C@@H](CCC(=O)O)C(=O)O [2d] (H-RWVARRDYRGDMGFDYWHWE-OH) | 0.06 | -1.59 ± 0.01 kcal/mol | 50.9 oC | 97 ± 1% | 80 ± 1% | 18.2 ± 0.2 kcal/mol | 0 cal.deg-1.mol-1 | -19.8 ± 0.2 kcal/mol | -19.8 ± 0.07 kcal/mol | 97% (B) | 97% | 51 °C | -19808.7 cal/mol | 324.048 K |  |  |  | 
3 | CSCC[C@H](NC(=O)[C@H](CC(=O)O)NC(=O)[C@H](Cc1ccccc1)NC(=O)[C@H](CCCNC(=N)N)NC(=O)[C@H](Cc1ccc(O)cc1)NC(=O)[C@H](CC(=O)O)NC(=O)[C@H](CCCNC(=N)N)NC(=O)[C@H](CCCNC(=N)N)NC(=O)[C@H](C)NC(=O)[C@@H](NC(=O)[C@H](Cc1c[nH]c2ccccc12)NC(=O)[C@@H](N)CCCNC(=N)N)C(C)C)C(=O)NCC(=O)N[C@@H](Cc1ccccc1)C(=O)N[C@@H](CC(=O)O)C(=O)N[C@@H](Cc1ccc(O)cc1)C(=O)N[C@@H](Cc1c[nH]c2ccccc12)C(=O)N[C@@H](Cc1c[nH]cn1)C(=O)N[C@@H](Cc1c[nH]c2ccccc12)C(=O)N[C@@H](CCC(=O)O)C(=O)O [2e] (H-RWVARRDYRFDMGFDYWHWE-OH) | 0.06 | 0.088 ± 0.02 kcal/mol | 3.96 oC | 48 ± 1% | 42 ± 1% | 2.40 ± 0.02 kcal/mol | -107±5 cal.deg-1.mol-1 | -2.31 ± 0.03 kcal/mol | -0.070 ± 0.6 kcal/mol | 48% (B) | 48% | 4 °C | -70.0474 cal/mol | 277.107 K |  |  |  | 
4 | CSCC[C@H](NC(=O)[C@H](CC(=O)O)NC(=O)CNC(=O)[C@H](CCCNC(=N)N)NC(=O)[C@H](Cc1ccc(O)cc1)NC(=O)[C@H](CC(=O)O)NC(=O)[C@H](CCCNC(=N)N)NC(=O)[C@H](CCCNC(=N)N)NC(=O)[C@H](CCCCN)NC(=O)[C@@H](NC(=O)[C@H](Cc1c[nH]c2ccccc12)NC(=O)[C@@H](N)CCCNC(=N)N)C(C)C)C(=O)NCC(=O)N[C@@H](Cc1ccccc1)C(=O)N[C@@H](CC(=O)O)C(=O)N[C@@H](Cc1ccc(O)cc1)C(=O)N[C@@H](Cc1c[nH]c2ccccc12)C(=O)N[C@H](C(=O)N[C@@H](Cc1c[nH]c2ccccc12)C(=O)N[C@@H](CCC(=O)O)C(=O)O)C(C)C [2f] (H-RWVKRRDYRGDMGFDYWVWE-OH) | 0.06 | -1.33 ± 0.01 kcal/mol | 65.4 oC | 92 ± 1% | 85 ± 1% | 5.76 ± 0.07 kcal/mol | -208 ±2 cal.deg-1.mol-1 | -7.09 ± 0.07 kcal/mol | -15.5 ± 0.04 kcal/mol | 92% (B) | 92% |  | -15522.8 cal/mol | 338.533 K | 862 nM |  |  | 
5 | CSCC[C@H](NC(=O)[C@H](CC(=O)O)NC(=O)CNC(=O)[C@H](CCCNC(=N)N)NC(=O)[C@H](Cc1ccc(O)cc1)NC(=O)[C@H](CC(=O)O)NC(=O)[C@H](CCCNC(=N)N)NC(=O)[C@H](CCCNC(=N)N)NC(=O)[C@H](C)NC(=O)[C@@H](NC(=O)[C@H](Cc1c[nH]c2ccccc12)NC(=O)[C@@H](N)CCCNC(=N)N)C(C)C)C(=O)NCC(=O)N[C@@H](Cc1ccccc1)C(=O)N[C@@H](CC(N)=O)C(=O)N[C@@H](Cc1ccc(O)cc1)C(=O)N[C@@H](Cc1c[nH]c2ccccc12)C(=O)N[C@H](C(=O)N[C@@H](Cc1c[nH]c2ccccc12)C(=O)N[C@@H](CCC(=O)O)C(=O)O)C(C)C [2j] (H-RWVARRDYRGDMGFNYWVWE-OH) | 0.07 | -1.63 ± 0.01 kcal/mol | 57.8 oC | 97 ± 1% | 84 ± 1% | 14.3 ± 0.09 kcal/mol | -29 ± 3 cal.deg-1.mol-1 | -15.9 ± 0.02 kcal/mol | -16.8 ± 0.03 kcal/mol | 97% (B) |  | 58 °C |  |  |  | -16839.4 cal/mol | 330.952 K | EC50 (PD1:PDL1 interaction; PD1:PDL1 inhibition EC50, ELISA, PDL1-coated plate, biotin-labeled human PD-1, 2 h rt, chemiluminescence, Hill fit, mean ± SD, n = 3, SD): 100 ± 10 nM
6 | CSCC[C@@H]1NC(=O)[C@H](CC(=O)O)NC(=O)[C@H](Cc2ccccc2)NC(=O)[C@H](CCCNC(=N)N)NC(=O)[C@H](Cc2ccc(O)cc2)NC(=O)[C@H](CC(=O)O)NC(=O)[C@H](CCCNC(=N)N)NC(=O)[C@H](CCCNC(=N)N)NC(=O)[C@H](C)NC(=O)[C@@H](NC(=O)[C@H](Cc2c[nH]c3ccccc23)NC(=O)[C@@H](N)CCCNC(=N)N)CSSC[C@@H](C(=O)N[C@@H](Cc2c[nH]c3ccccc23)C(=O)N[C@@H](CCC(=O)O)C(=O)O)NC(=O)[C@H](Cc2c[nH]c3ccccc23)NC(=O)[C@H](Cc2ccc(O)cc2)NC(=O)[C@H](CC(=O)O)NC(=O)[C@H](Cc2ccccc2)NC(=O)CNC1=O [2l] (H-RWCARRDYRFDMGFDYWCWE-OH; disulfide 3-18) | 0.06 | -0.77 ± 0.01 kcal/mol | 66.0 oC | 82 ± 1% | 71 ± 1% | 4.69 ± 0.05 kcal/mol | -44 ± 2 cal.deg-1.mol-1 | -5.46 ± 0.05 kcal/mol | -7.29 ± 0.04 kcal/mol |  |  |  |  |  | 584 nM | -7285.21 cal/mol | 339.181 K | 
